Source: patent US10494346B2, “Substituted pyrimidine-4-carboxylic acids having anticancer activity” (KOREA INSTITUTE OF SCIENCE AND TECHNOLOGY, priority 2016, dated 2019)

Legend:
[1] = system: KDM5A-overexpressed breast cancer cells, MCF7; test: Growth inhibitory activity on KDM5A-overexpressed cell lines (MCF7), single concentration; format: cell-based; details: Homo sapiens; MCF7, single concentration 10 μM; read-out: Growth inhibitory activity at 10 μM (inhibition proportion %)
Protocol: The compound of the present invention was treated at a single concentration with KDM5A-overexpressed breast cancer cells, MCF7, and growth inhibitory activity was measured as an inhibition proportion (%).

[2] = system: MDA-MB-231 breast cancer cell line; test: Inhibitory activity on cancer cell proliferation, MDA-MB-231 (CellTiter-Glo, 72 hours); format: cell-based; details: Homo sapiens; MDA-MB-231, 72 hours
Protocol: (§1) The following test was conducted to identify whether the compound of the present invention has inhibitory activity on cancer cell proliferation.
(§2) The cancer cells herein used were lung cancer cell lines (NCI-H1299, A549) and breast cancer cell lines (MDA-MB-231).
(§3) Specifically, the NCI-H1299 cells were large cell lung carcinoma cell lines derived from human lung cancer tissues, and the MDA-MB231 cells were cell lines derived from human breast cancer tissues and obtained from the Korean cell line bank (KNCC, Seoul university), which were used for tests after passage culture. The NCI-H1299 and MDA-MB231 cell lines were cultured in a RPMI1640 medium supplemented with 10% FBS (fetal bovine serum), and were washed with buffered saline (PBS, pH 7.4), when the cells were proliferated on a plate at an affluence of 70 to 80%, and isolated into single cells using a 0.05% trypsin-EDTA (welgene) solution, and then passage-cultured at 1×10e6 cells/mL which were used for the test. 100 μL of NCI-H1299 and 100 μL of MDA-MB231 were seeded on a 96-well plate at 2×10e4 cells/mL, and 5×10e4 cells/mL, respectively, stabilized in the presence of CO2 for 12 hours or longer, and then treated at different concentrations with the subject compound. After 72 hours, absorbance was measured using a CellTiter-Glo® Luminescent Cell Viability Assay (Promega) and an Envision 2103 multilabel reader (PerkinElmer). At this time, cells treated only with dimethylsulfoxide (DMSO) were used as the control group and relative viability (%) was calculated, based on 100% of the control group. GI50 was obtained using Graph PRISM 6 software.

[3] = system: A549 lung cancer cell line; test: Inhibitory activity on cancer cell proliferation, A549; format: cell-based; details: Homo sapiens
Protocol: as §1, §2
as §3, with “100 μL of NCI-H1299 and 100 μL of MDA-MB231 were seeded on a 96-well plate at 2×10e4 cells/mL, and 5×10e4 cells/mL, respectively, stabilized in the presence of CO2 for 12 hours or longer, and then treated at different concentrations with the subject compound.” left out, “GI50 was obtained using Graph PRISM 6 software.” left out

[4] = system: NCI-H1299 cells; test: Inhibitory activity on cancer cell proliferation, NCI-H1299 (CellTiter-Glo, 72 hours); format: cell-based; details: Homo sapiens; NCI-H1299, 72 hours
Protocol: as §1, §2
as §3, with “100 μL of NCI-H1299 and 100 μL of MDA-MB231 were seeded on a 96-well plate at 2×10e4 cells/mL, and 5×10e4 cells/mL, respectively, stabilized in the presence of CO2 for 12 hours or longer, and then treated at different concentrations with the subject compound.” left out, “GI50 was obtained using Graph PRISM 6 software.” left out

[5] = target: KDM5A (lysine demethylase 5A) (Homo sapiens, UniProt P29375); test: Inhibitory activity against histone demethylase (in vitro IC50); format: biochemical
Sequence of KDM5A (lysine demethylase 5A) (P29375 whole entry, species assumed): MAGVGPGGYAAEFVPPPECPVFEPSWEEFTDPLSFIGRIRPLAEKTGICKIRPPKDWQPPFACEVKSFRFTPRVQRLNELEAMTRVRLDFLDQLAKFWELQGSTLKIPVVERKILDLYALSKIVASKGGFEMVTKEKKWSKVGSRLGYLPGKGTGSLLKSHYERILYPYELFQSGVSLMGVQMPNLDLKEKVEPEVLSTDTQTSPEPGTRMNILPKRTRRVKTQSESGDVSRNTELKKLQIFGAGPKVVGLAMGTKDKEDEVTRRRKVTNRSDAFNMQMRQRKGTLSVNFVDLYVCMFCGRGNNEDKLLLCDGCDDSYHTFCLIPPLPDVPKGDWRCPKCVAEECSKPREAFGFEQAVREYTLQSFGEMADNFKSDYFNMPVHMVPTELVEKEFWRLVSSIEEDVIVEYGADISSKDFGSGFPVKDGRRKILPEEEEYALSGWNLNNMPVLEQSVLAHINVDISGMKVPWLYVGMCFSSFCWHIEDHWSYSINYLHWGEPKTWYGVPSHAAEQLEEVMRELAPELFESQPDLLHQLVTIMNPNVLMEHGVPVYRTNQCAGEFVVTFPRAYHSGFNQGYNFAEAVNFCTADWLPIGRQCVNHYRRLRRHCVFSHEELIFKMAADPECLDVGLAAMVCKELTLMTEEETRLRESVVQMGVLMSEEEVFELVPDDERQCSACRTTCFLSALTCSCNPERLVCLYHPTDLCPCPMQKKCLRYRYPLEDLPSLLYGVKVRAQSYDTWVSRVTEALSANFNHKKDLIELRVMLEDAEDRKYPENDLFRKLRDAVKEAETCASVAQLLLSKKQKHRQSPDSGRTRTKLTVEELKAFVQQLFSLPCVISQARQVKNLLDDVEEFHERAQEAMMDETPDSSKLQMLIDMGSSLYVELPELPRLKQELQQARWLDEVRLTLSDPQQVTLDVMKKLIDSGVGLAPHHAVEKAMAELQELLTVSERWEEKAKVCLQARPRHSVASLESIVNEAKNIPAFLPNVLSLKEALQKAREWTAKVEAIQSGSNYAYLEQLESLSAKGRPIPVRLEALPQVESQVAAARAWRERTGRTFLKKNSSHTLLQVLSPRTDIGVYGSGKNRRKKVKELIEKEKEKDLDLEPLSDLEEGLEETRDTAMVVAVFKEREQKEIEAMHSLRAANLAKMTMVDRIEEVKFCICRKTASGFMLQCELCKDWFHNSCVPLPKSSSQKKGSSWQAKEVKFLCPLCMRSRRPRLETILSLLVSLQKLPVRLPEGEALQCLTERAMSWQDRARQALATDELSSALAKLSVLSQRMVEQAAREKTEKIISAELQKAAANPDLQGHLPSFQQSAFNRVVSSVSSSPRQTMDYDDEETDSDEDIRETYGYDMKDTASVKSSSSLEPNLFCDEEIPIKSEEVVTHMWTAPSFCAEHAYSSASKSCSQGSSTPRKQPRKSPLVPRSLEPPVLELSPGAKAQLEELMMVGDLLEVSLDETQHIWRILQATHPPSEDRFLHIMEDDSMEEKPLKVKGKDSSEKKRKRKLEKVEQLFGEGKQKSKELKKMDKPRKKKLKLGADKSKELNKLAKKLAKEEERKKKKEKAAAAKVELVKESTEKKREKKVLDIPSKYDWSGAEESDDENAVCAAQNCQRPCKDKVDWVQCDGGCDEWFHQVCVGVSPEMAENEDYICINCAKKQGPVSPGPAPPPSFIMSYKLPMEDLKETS
Protocol: Inhibitory activity against histone demethylase of the compound of the present invention was evaluated.

O=C(O)c1ncncc1NCc1ccc(-c2ccccc2)cc1 [Example 1, 5-(([1,1′-biphenyl]-4-ylmethyl)amino)pyrimidine-4-carboxylic Acid] was tested, and the inhibition at 10 µM [1] was 40 to 80%.

Compound O=C(O)c1ncncc1NCc1ccc(Cl)c(Cl)c1 [Example 3, 5-((3,4-dichlorobenzyl)amino)pyrimidine-4-carboxylic Acid] has a GI50 [2] of 10 to 100 µM and a GI50 [3] of 10 to 100 µM.

In the case of O=C(O)c1ncncc1NCc1ccc(F)cc1 [Example 6, 5-((4-fluorobenzyl)amino)pyrimidine-4-carboxylic Acid], the GI50 [2] is reported as 10 to 100 µM.

In the case of O=C(O)c1ncncc1NCc1cc(C(F)(F)F)cc(C(F)(F)F)c1 [Example 7, 5-((3,5-bis(trifluoromethyl)benzyl)amino)pyrimidine-4-carboxylic Acid], the GI50 [2] is reported as 10 to 100 µM.

Cc1ccc(CNc2cncnc2C(=O)O)cc1 [Example 9, 5-((4-methylbenzyl)amino)pyrimidine-4-carboxylic Acid] gave a GI50 [2] of 10 to 100 µM.

O=C(O)c1ncncc1NCc1cccc(F)c1 [Example 10, 5-((3-fluorobenzyl)amino)pyrimidine-4-carboxylic Acid] showed a GI50 [4] of less than 10 µM.

CCCn1nc(Nc2cncnc2C(=O)O)c2ccccc21 [Example 12, 5-((1-propyl-1H-indazol-3-yl)amino)pyrimidine-4-carboxylic Acid] was tested, and the GI50 [2] was 10 to 100 µM, the GI50 [3] was 10 to 100 µM and the IC50 [5] was less than 3 µM.
